The values below come from ChEMBL document CHEMBL1127091, “Design of 5-(3,5-di-tert-butyl-4-hydroxyphenyl)-1,3,4-thiadiazoles, -1,3,4-oxadiazoles, and -1,2,4-triazoles as orally-active, nonulcerogenic antiinflammatory agents” (J Med Chem, 1993).

Data set [1] can be described thus: Partition coefficient (logP). It counts as physicochemical. As to conditions: octanol/water.
The target in data set [2] is T1, Polyunsaturated fatty acid 5-lipoxygenase (Rattus norvegicus, UniProt P12527).
T1 sequence (P12527 whole entry): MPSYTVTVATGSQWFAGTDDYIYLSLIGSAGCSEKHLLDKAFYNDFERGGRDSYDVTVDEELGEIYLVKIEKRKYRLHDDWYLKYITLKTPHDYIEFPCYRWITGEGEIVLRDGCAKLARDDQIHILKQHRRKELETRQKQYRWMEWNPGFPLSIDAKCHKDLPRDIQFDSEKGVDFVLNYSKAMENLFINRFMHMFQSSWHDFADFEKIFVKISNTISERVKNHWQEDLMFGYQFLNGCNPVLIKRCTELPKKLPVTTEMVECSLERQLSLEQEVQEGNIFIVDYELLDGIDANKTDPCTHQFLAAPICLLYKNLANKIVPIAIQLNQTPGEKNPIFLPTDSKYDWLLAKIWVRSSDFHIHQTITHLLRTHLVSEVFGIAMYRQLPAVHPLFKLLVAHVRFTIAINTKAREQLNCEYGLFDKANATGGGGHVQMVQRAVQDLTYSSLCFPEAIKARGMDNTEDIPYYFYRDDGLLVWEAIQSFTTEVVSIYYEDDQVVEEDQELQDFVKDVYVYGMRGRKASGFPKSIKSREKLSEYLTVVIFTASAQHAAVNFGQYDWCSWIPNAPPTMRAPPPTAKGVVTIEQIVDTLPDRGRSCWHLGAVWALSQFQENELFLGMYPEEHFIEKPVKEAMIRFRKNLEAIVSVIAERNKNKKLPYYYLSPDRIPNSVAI
Description: Inhibition of 5-lipoxygenase measured by the reduction of leukotriene B4 (LTB4) in intact basophilic rat leukemia cells

A further data set has as its target T2, Cyclooxygenase (Rattus norvegicus, UniProt P35355+Q63921).
T2 sequence (P35355 whole entry): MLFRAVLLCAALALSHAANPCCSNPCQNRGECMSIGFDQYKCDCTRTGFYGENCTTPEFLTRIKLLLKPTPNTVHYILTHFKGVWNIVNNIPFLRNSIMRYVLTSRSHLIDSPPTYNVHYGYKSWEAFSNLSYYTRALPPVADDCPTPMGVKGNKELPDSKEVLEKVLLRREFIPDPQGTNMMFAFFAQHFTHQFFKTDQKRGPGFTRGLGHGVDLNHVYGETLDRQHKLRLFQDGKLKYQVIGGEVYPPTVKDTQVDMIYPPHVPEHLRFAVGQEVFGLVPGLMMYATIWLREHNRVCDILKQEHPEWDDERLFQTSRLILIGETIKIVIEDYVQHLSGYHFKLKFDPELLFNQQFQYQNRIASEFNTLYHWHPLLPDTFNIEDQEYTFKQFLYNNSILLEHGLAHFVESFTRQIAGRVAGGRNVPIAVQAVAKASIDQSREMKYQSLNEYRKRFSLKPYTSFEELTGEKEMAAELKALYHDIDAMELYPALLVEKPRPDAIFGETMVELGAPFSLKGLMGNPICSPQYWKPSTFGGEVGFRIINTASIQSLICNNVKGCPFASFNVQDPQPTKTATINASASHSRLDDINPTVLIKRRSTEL
T2 sequence (Q63921 whole entry): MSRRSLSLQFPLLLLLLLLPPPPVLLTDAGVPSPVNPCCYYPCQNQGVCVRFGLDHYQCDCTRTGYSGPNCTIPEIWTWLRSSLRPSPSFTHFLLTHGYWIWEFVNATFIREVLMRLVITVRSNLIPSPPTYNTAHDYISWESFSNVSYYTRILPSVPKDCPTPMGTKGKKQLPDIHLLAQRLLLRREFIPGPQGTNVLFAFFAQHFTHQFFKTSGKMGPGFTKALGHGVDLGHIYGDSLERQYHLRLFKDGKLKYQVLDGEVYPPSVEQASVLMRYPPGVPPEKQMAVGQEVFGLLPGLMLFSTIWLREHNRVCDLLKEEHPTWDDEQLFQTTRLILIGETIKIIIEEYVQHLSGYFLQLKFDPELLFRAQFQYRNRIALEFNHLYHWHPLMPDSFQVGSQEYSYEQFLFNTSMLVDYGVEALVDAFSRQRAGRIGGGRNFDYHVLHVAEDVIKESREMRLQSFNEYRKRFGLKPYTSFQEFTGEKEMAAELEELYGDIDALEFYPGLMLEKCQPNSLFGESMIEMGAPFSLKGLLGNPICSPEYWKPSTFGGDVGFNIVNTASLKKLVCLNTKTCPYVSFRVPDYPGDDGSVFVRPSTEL

Data set [3] concerns Rattus norvegicus. As to the kind of experiment: In vivo inflammatory activity measured on Carrageenan foot-pad edema (CFE) in rats, peroral administration. It counts as functional. (In the carrageenan paw model, swelling and tenderness develop within hours.)
The test system of data set [4] is Rattus norvegicus. As to the kind of experiment: In vivo inflammatory activity measured on Gastric ulcerogenicity, expressed as percent rats with ulcers at 200 mg/kg, po (n= 10 rats per experimental group). It counts as functional, Stomach.
The test system of data set [5] is Rattus norvegicus. As to the kind of experiment: In vivo inflammatory activity measured on Mycobacterium foot-pad edema (MFE) model, peroral administration. It counts as functional.
For data set [6], the system named is Rattus norvegicus. In words: In vivo inflammatory activity measured on Gastric ulcerogenicity (n= 10 rats per experimental group). It counts as functional, Stomach.
In data set [7] the target is T1, Polyunsaturated fatty acid 5-lipoxygenase. This is another data set of the same source.
Description: Tested for inhibition of 5-LO by measuring the reduction of leukotriene B4 (LTB4) in intact basophilic rat leukemia cells
The subject of data set [8] is Rattus norvegicus. As to the kind of experiment: In vivo inflammatory activity measured on Gastric ulcerogenicity, expressed as percent rats with ulcers at 10 mg/kg, po (n= 10 rats per experimental group). It counts as functional, Stomach.
Data set [9] relates to Rattus norvegicus. In words: In vivo inflammatory activity measured on Mycobacterium foot-pad edema (MFE) model. It counts as functional.
In data set [10] the test system is Rattus norvegicus. As to the kind of experiment: In vivo inflammatory activity measured on Gastric ulcerogenicity, (n= 10 rats per experimental group). It counts as functional, Stomach.

The term logP denotes a log measure of how a compound divides between an organic and an aqueous phase. For orientation: IC50 means the concentration needed to halve the response being measured.

Description for Cyclooxygenase: Inhibition of prostaglandin G/H synthase by measuring the reduction of prostaglandin F2-alpha in intact basophilic rat leukemia cells

With `CC(C)(C)c1cc(-c2n[nH]c(S)n2)cc(C(C)(C)C)c1O`, the lipophilicity (logP) in data set [1] is 2.4. For the same molecule, the figures for the IC50 (in data set [2]; against Cyclooxygenase) were 11 µM and 0.78 µM, respectively.
With `CC(C)(C)c1cc(-c2nnc(N)o2)cc(C(C)(C)C)c1O`, in [1], the logP was 3.7. In the data set on Rattus norvegicus [3], this molecule showed an ID40 of 8.2 mg/kg. Further, the values for the 50% inhibitory concentration (IC50) (in [2]; against Cyclooxygenase) were 0.7 µM and 2.4 µM, respectively.
`CC(C)(C)c1cc(-c2nnc(O)o2)cc(C(C)(C)C)c1O` displayed a logP in data set [1] of 3.4. Also, on Cyclooxygenase, the 50% inhibitory concentration (IC50) was 2.5 µM.
Turning to `Cn1c(S)nnc1-c1cc(C(C)(C)C)c(O)c(C(C)(C)C)c1`, in data set [1], the logP is 3.7. Also, the 50% inhibitory concentration (IC50) (in data set [2]; against Cyclooxygenase) was over 32 µM each time.
With `CC(C)(C)c1cc(-c2nnc(S)n2N)cc(C(C)(C)C)c1O`, in data set [1], the logP was found to be 3.3. The concentration for half-maximal inhibition (IC50) (in data set [2]; at Cyclooxygenase) was over 32 µM throughout.
Molecule `CC(C)(C)c1cc(-c2n[nH]c(=S)s2)cc(C(C)(C)C)c1O.C[N+](C)(C)CCO` registered a logP in [1] of 2.7. The same molecule gave an Activity with Rattus norvegicus [4] of 0%. Also, the ID40 with Rattus norvegicus [3] came out at 1.1 mg/kg; with Rattus norvegicus [5], 7.8 mg/kg.
`CC(C)(C)c1cc(/C=C2\CCOC2=O)cc(C(C)(C)C)c1O`: in [1], the logP is over 4. In addition, the ID40 in the data set on Rattus norvegicus [3] was over 10 mg/kg; with Rattus norvegicus [5], 3.7 mg/kg. The UD50 in the data set on Rattus norvegicus [6] worked out at 93.1 mg/kg.
Molecule `CC(C)(C)c1cc(-c2nnc(O)s2)cc(C(C)(C)C)c1O` had a logP in data set [1] of 4. The half-inhibitory concentration (IC50) was 5.9 µM in [2] and over 16 µM at Cyclooxygenase.
On to `CC(C)(C)c1cc(-c2nnc(N)s2)cc(C(C)(C)C)c1O`, for which the lipophilicity (logP) in [1] is 3.7. For the same molecule, in the data set on Rattus norvegicus [4], the Activity came out at 10%. The figures for the ID40 in the data set with Rattus norvegicus [3] and in the data set with Rattus norvegicus [5] were 1.9 mg/kg and 2.3 mg/kg, respectively. The molecule further gave an IC50 against Cyclooxygenase of 0.13 µM.
Take `CC(C)(C)c1cc(-c2nnc(S)o2)cc(C(C)(C)C)c1O`: the logP in [1] was determined as 2.3. Also, the ID40 turned out to be 3.9 mg/kg with Rattus norvegicus [3] and 59.9 mg/kg in the data set on Rattus norvegicus [5]. Also, the IC50 stood at 4.8 µM in [2] and 3.7 µM against Cyclooxygenase.
Turning to `Cn1nc(-c2cc(C(C)(C)C)c(O)c(C(C)(C)C)c2)sc1=S`, the concentration for half-maximal inhibition (IC50) in data set [7] came out at 5 µM; against Cyclooxygenase it was 0.65 µM.
Regarding `COc1c(C(C)(C)C)cc(-c2nnc(S)s2)cc1C(C)(C)C`, the figures for the IC50 (in data set [7]; at Cyclooxygenase) were 0.92 µM and 0.35 µM, respectively.
As for `CSc1nnc(-c2cc(C(C)(C)C)c(O)c(C(C)(C)C)c2)s1`, in [1], the logP was over 4. The half-maximal inhibitory concentration (IC50) in data set [2] was 1.2 µM; against Cyclooxygenase, 0.41 µM.
Take `CSc1nnc(/C=C/c2cc(C(C)(C)C)c(O)c(C(C)(C)C)c2)s1`: the IC50 (in [2]; at Cyclooxygenase) was over 10 µM in each case.
The molecule `CC(C)(C)c1cc(-c2n[nH]c(O)n2)cc(C(C)(C)C)c1O` registered a log partition coefficient (logP) in data set [1] of 3.1. Besides, at Cyclooxygenase, the IC50 stood at 5.5 µM.
`CC(C)(C)c1cc(-c2n[nH]c(N)n2)cc(C(C)(C)C)c1O`: the logP in [1] turned out to be 3.1. Further, the half-inhibitory concentration (IC50) in data set [2] was 5.1 µM; at Cyclooxygenase, over 30 µM.
For `CC(C)(C)c1cc(/C=C/c2nnc(O)o2)cc(C(C)(C)C)c1O` the same measures were 3.4, 0.21 µM and over 32 µM.
For `Cc1cc(/C=C/c2cc(C(C)(C)C)c(O)c(C(C)(C)C)c2)on1`, in data set [1], the log partition coefficient (logP) is over 4. This molecule came in with an ID40 in the data set with Rattus norvegicus [5] of 33 mg/kg.
In turn, `CC(C)(C)c1cc(/C=C/c2nnc(S)o2)cc(C(C)(C)C)c1O` gave a logP in data set [1] of 3. For the same molecule, the half-inhibitory concentration (IC50) in data set [2] was 0.58 µM; against Cyclooxygenase, 9.4 µM.
For `CC(C)(C)c1cc(/C=C/c2n[nH]c(O)n2)cc(C(C)(C)C)c1O`, in that order: 3.8, 1.6 µM and over 32 µM.
In data set [1], `CON1CC/C(=C\c2cc(C(C)(C)C)c(O)c(C(C)(C)C)c2)C1=O` [E-5110] yielded a log partition coefficient (logP) of over 4. The Activity in the data set with Rattus norvegicus [8] is 10%. Moreover, the ID40 came out at 24.1 mg/kg in the data set with Rattus norvegicus [3] and 1.9 mg/kg in the data set with Rattus norvegicus [9].
As for `Cn1c(O)nnc1-c1cc(C(C)(C)C)c(O)c(C(C)(C)C)c1`, in [1], the lipophilicity (logP) came to 3.2.
For `CC(C)(C)c1cc(/C=C/c2n[nH]c(S)n2)cc(C(C)(C)C)c1O`, the log partition coefficient (logP) in data set [1] was 3.1. Also, the 50% inhibitory concentration (IC50) turned out to be 2.4 µM in data set [2] and 6.7 µM on Cyclooxygenase.
For `CC(C)(C)c1cc(/C=C/c2nnc(S)s2)cc(C(C)(C)C)c1O` the same measures were over 4, 1.8 µM and 5.2 µM.
Consider `CC(C)(C)c1cc(/C=C/c2nnc(N)o2)cc(C(C)(C)C)c1O`, for which the half-maximal inhibitory concentration (IC50) stood at 1.1 µM in data set [2] and 8 µM against Cyclooxygenase.
Turning to `Cc1ccc(Cl)c(Nc2ccccc2C(=O)O)c1Cl` [MECLOFENAMIC ACID], the ID40 was found to be 5.6 mg/kg in the data set on Rattus norvegicus [3] and 0.35 mg/kg in the data set with Rattus norvegicus [5]. The UD50 with Rattus norvegicus [10] was 36.2 mg/kg.
